For assay [1], the target named is mTOR (Homo sapiens, UniProt P42345). The settings on record: selective mTOR inhibitors; cited from earlier work.
Assay [2] concerns HCMV. Briefly: HCMV replication in serum-starved fibroblasts, infectious progeny by TCID50 assay. Format: cell-based, human cytomegalovirus. The settings on record: multiplicity 0.1 TCID50 units per cell. As for the experimental part: FIG. 2. Inhibition of HCMV Replication by Inhibition of GPAT. Serum-starved fibroblasts were infected with HCMV at a multiplicity of 0.1 TCID50 units per cell. After adsorption for 1 h, cultures were re-fed with serum-free medium containing concentrations of 2.5 μg/ml, 5 μg/ml and 10 μg/ml of FAS 115 or with DMSO, the solvent used to dissolve FAS 115. Medium was assayed at 0, 2, 4, 6, 8, 10 and 12 days after infection and the production of infectious progeny was determined by TCID50 assay on fibroblasts.
Serum-starved fibroblasts were infected with HCMV at a multiplicity of 0.1 TCID50 units per cell. After adsorption for 1 h, cultures were re-fed with serum-free medium containing concentrations of 2.5μ/ml, 5μ/ml and 10μ/ml of FAS 115 or with DMSO, the solvent used to dissolve FAS 115. The medium was assayed at 0, 2, 4, 6, 8, 10 and 12 days after infection and the production of infectious progeny was determined by TCID50 assay on fibroblasts. […] At the highest concentration, production of virus was not observed on day 12 after infection. (FIG. 2).
Cell Lines, Viral Stock. Low passage fibroblasts (passage 6-8) were cultured in a medium containing 10% fetal bovine serum. Bacterial artificial chromosome-derived HCMV AD 169 strain (BADWT) was propagated in human foreskin fibroblasts (HFFs), concentrated via a 20% sorbitol cushion, and resuspended as a stock in serum-free media.

The test system of assay [3] is human cytomegalovirus. The assay is described as follows: HCMV late protein expression by Western blot in infected fibroblasts. The settings on record: intermediate and high concentrations (5μ/ml and 10μ/ml); 96 hours after infection; multiplicity 3.0 TCID50 units/cell; compared to tubulin and IE-1. The format is cell-based. As for the experimental part: FIG. 3. Dose-dependent Inhibition of Human Cytomegalovirus Late Protein Expression by Inhibition of GPAT. Serum-starved fibroblasts were infected with human cytomegalovirus at a multiplicity of 3.0 TCID50 units/cell. After adsorption for 1 h, cultures were re-fed with serum-free medium containing the indicated concentrations of FAS 115 or with DMSO, the solvent used to dissolve FAS 115. Cells were harvested at 96 hours after infection and viral protein expression was assessed by Western blot. IE-1 is a viral protein expressed immediately early during infection. pp65 and pp28 are viral proteins expressed late during HCMV infection. Tubulin is a loading control.
Serum-starved fibroblasts were infected with human cytomegalovirus at a multiplicity of 3.0 TCID50 units/cell. After adsorption for 1 h, cultures were re-fed with serum-free medium containing 2.5μ/ml, 5μ/ml and 10μ/ml of FAS 115 or with DMSO, the solvent used to dissolve FAS 115. Cells were harvested at 96 hours after infection and viral protein expression was assessed by Western blot. IE-1 is a viral protein expressed during the immediate-early phase of infection. pp65 and pp28 are viral proteins expressed late during HCMV infection. Tubulin is a loading control. […] (FIG. 3).
(In western blotting, separated proteins are transferred to a membrane and probed.)

Assay [4] has as its system herpes simplex virus-1. Briefly: HSV-1 replication in serum-starved fibroblasts, infectious progeny by TCID50 assay. The format is cell-based. The settings on record: multiplicity 0.01 TCID50 units/cell. As to the method:
FIG. 4. Dose-dependent Inhibition of Herpes Simplex Virus-1 Replication by Inhibition of GPAT. Serum-starved fibroblasts were infected with herpes simplex virus-1 at a multiplicity of 0.01 TCID50 units/cell. After adsorption for 1 h, cultures were re-fed with serum-free medium containing the indicated concentrations of FAS 115 or with DMSO, the solvent used to dissolve FAS 115. Medium was harvested at the indicated times after infection and the production of infectious progeny was determined by TCID50 assay on fibroblasts.
Serum-starved fibroblasts were infected with herpes simplex virus-1 at a multiplicity of 0.01 TCID50 units/cell. After adsorption for 1 h, cultures were re-fed with serum-free medium containing concentrations of 2.5μ/ml, 5μ/ml and 10μ/ml of FAS 115 of FAS 115 or with DMSO, the solvent used to dissolve FAS 115. The medium was assayed daily for five days and the production of infectious progeny was determined by TCID50 assay on fibroblasts. […] At higher concentrations, the concentration of infections virus was reduced to 1 TCID50 unit/ml or less after 5 days. (FIG. 4).

Assay [5] deals with GPAT. The note with it: cited from earlier work.
Assay [6] has as its system panel of 140 protein kinases. The note with it: cited from earlier work.

Here are results for five compounds from patent US9149445B2, “Inhibition of glycerol-3-phosphate acyltransferase (GPAT) and associated enzymes for treatment of viral infections” (THE TRUSTEES OF PRINCETON UNIVERSITY, priority 2009, dated 2015).

For `COC(=O)Nc1ccc(-c2nc(N3CCOCC3)c3cnn(C4CCN(C(=O)OC)CC4)c3n2)cc1` [WYE354], the 50% inhibitory concentration (IC50) in assay [1] is 5 nM.

`c1cncc(CN2CCC(n3ncc4c(N5CCOCC5)nc(-c5ccc6[nH]ccc6c5)nc43)CC2)c1` [WAY-600]: the IC50 in assay [1] was 9 nM.

Regarding `CNC(=O)Nc1ccc(-c2nc(N3CC4CCC(C3)O4)c3cnn(C4CCC5(CC4)OCCO5)c3n2)cc1` [WYE-125132], the IC50 in assay [1] was 0.19 nM.

In the case of `CCCCCCCC[C@@]1(C)SC(=O)C=C1OC(=O)OCC` [FAS 115], the production of virus entry in assay [2] (highest concentration (10μ/ml), day 12 after infection) is “not observed”. Moreover, the viral titers reduced entry in assay [2] (lowest FAS 115 concentration (2.5μ/ml), versus DMSO) was “about an order of magnitude”. In assay [3], the “expression of pp28” value is given as “noticeably reduced” and the “expression of pp65” value is on record as “noticeably reduced”. Moreover, the “concentration of infections virus” value in assay [4] (higher concentrations (5μ/ml, 10μ/ml), after 5 days) was no more than 1 TCID50 unit/ml. The “viral titers lower than in untreated cells” value in assay [4] (lowest FAS 115 concentration (2.5μ/ml)) is “about an order of magnitude”. Moreover, in assay [5], the “inhibition of GPAT” value was “inhibits GPAT”.

With `Cc1c(C(=O)N2CCOc3ccc(-c4ccc(N)nc4)cc3C2)ccc(S(C)(=O)=O)c1F` [XL388], in assay [6], the IC50 is greater than 3000 nM.

The term IC50 denotes the concentration that gives 50% inhibition.
